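Five compound concentrations were applied to cells in 96-well plates for 48 hours; endpoints were derived by simple linear interpolation of the resulting dose-response curve. GI50 marks 50% less growth. Definition used: TGI = concentration required for complete inhibition of growth.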
How the values were obtained:
Experiment in all cases: DTP human tumour cell line panel, 48 h
NCI-H23 lung = system: NCI-H23 lung
NCI-H460 lung = system: NCI-H460 lung
NCI-H522 lung = system: NCI-H522 lung
NCI/ADR-RES ovarian = system: NCI/ADR-RES ovarian
OVCAR-3 ovarian = system: OVCAR-3 ovarian
OVCAR-4 ovarian = system: OVCAR-4 ovarian
OVCAR-5 ovarian = system: OVCAR-5 ovarian
OVCAR-8 ovarian = system: OVCAR-8 ovarian
PC-3 prostate = system: PC-3 prostate
RPMI-8226 leukemia = system: RPMI-8226 leukemia
RXF 393 renal = system: RXF 393 renal
SF-268 CNS = system: SF-268 CNS
SF-295 CNS = system: SF-295 CNS
SF-539 CNS = system: SF-539 CNS
SK-MEL-2 melanoma = system: SK-MEL-2 melanoma
SK-MEL-28 melanoma = system: SK-MEL-28 melanoma
SK-MEL-5 melanoma = system: SK-MEL-5 melanoma
SK-OV-3 ovarian = system: SK-OV-3 ovarian
SN12C renal = system: SN12C renal
SNB-19 CNS = system: SNB-19 CNS
SNB-75 CNS = system: SNB-75 CNS
SR leukemia = system: SR leukemia
SW-620 colon = system: SW-620 colon
T-47D breast = system: T-47D breast
TK-10 renal = system: TK-10 renal
U251 CNS = system: U251 CNS
UACC-257 melanoma = system: UACC-257 melanoma
UACC-62 melanoma = system: UACC-62 melanoma
UO-31 renal = system: UO-31 renal

In the case of CSC1=Nc2c(c(C)c(-c3ccccc3)n2COC(CO)CO)C2=NC(=O)C(C)N12 (configuration not stated), the TGI (NCI-H23 lung) is reported as greater than 100 µM, the GI50 (NCI-H460 lung) is reported as greater than 100 µM and the TGI (NCI-H460 lung) is reported as greater than 100 µM. For the same compound, the GI50 (NCI-H522 lung) was greater than 100 µM, the TGI (NCI-H522 lung) was greater than 100 µM and the GI50 (NCI/ADR-RES ovarian) was greater than 100 µM. The TGI (NCI/ADR-RES ovarian) was greater than 100 µM, the GI50 (OVCAR-3 ovarian) was greater than 100 µM and the TGI (OVCAR-3 ovarian) was greater than 100 µM. It also gave a GI50 (OVCAR-4 ovarian) greater than 100 µM, a TGI (OVCAR-4 ovarian) greater than 100 µM and a GI50 (OVCAR-5 ovarian) greater than 100 µM. For the same compound, the TGI (OVCAR-5 ovarian) was greater than 100 µM, the GI50 (OVCAR-8 ovarian) was greater than 100 µM and the TGI (OVCAR-8 ovarian) was greater than 100 µM. It also gave a GI50 (PC-3 prostate) greater than 100 µM, a TGI (PC-3 prostate) greater than 100 µM and a GI50 (RPMI-8226 leukemia) greater than 100 µM. The TGI (RPMI-8226 leukemia) was greater than 100 µM, the GI50 (RXF 393 renal) was greater than 100 µM and the TGI (RXF 393 renal) was greater than 100 µM. The GI50 (SF-268 CNS) was greater than 100 µM, the TGI (SF-268 CNS) was greater than 100 µM and the GI50 (SF-295 CNS) was greater than 100 µM. For the same compound, the TGI (SF-295 CNS) was greater than 100 µM, the GI50 (SF-539 CNS) was greater than 100 µM and the TGI (SF-539 CNS) was greater than 100 µM. It also gave a GI50 (SK-MEL-2 melanoma) greater than 100 µM, a TGI (SK-MEL-2 melanoma) greater than 100 µM and a GI50 (SK-MEL-28 melanoma) greater than 100 µM. It also gave a TGI (SK-MEL-28 melanoma) greater than 100 µM, a GI50 (SK-MEL-5 melanoma) greater than 100 µM and a TGI (SK-MEL-5 melanoma) greater than 100 µM. For the same compound, the GI50 (SK-OV-3 ovarian) was greater than 100 µM, the TGI (SK-OV-3 ovarian) was greater than 100 µM and the GI50 (SN12C renal) was greater than 100 µM. It also gave a TGI (SN12C renal) greater than 100 µM, a GI50 (SNB-19 CNS) greater than 100 µM and a TGI (SNB-19 CNS) greater than 100 µM. For the same compound, the GI50 (SNB-75 CNS) was 48.5 µM, the TGI (SNB-75 CNS) was greater than 100 µM and the GI50 (SR leukemia) was 4.07 µM. For the same compound, the TGI (SR leukemia) was greater than 100 µM, the GI50 (SW-620 colon) was greater than 100 µM and the TGI (SW-620 colon) was greater than 100 µM. It also gave a GI50 (T-47D breast) greater than 100 µM, a TGI (T-47D breast) greater than 100 µM and a GI50 (TK-10 renal) greater than 100 µM. The TGI (TK-10 renal) was greater than 100 µM, the GI50 (U251 CNS) was greater than 100 µM and the TGI (U251 CNS) was greater than 100 µM. It also gave a GI50 (UACC-257 melanoma) greater than 100 µM, a TGI (UACC-257 melanoma) greater than 100 µM and a GI50 (UACC-62 melanoma) of 70.1 µM. For the same compound, the TGI (UACC-62 melanoma) was greater than 100 µM, the GI50 (UO-31 renal) was greater than 100 µM and the TGI (UO-31 renal) was greater than 100 µM.

Source: PubChem BioAssay (NCI)
